One block for each molecule: values may come before it.
Tests used:
[1] = target: T1, KRas-mediated phosphorylation of ERK in H358 cells (Homo sapiens, UniProt P01116, G12C); assay: Inhibition of KRas-mediated phosphorylation of ERK (HTRF), H358 cells; format: cell-based; conditions: HTRF pERK, 3 h incubation
T1 construct: pERK HTRF read-out

KRas G12S = target: T2, KRas G12S (Homo sapiens, UniProt P01116, G12S); assay: KRas binding assay, TR-FRET displacement of Cy5 labelled tracer; conditions: 60-minute incubation at room temperature, 1% DMSO, pH 7.5
T2 construct: Biotinylated KRas (corresponding to amino acids 1-169, produced at Accelegan Inc.); biotin (biotinylated); purchased Accelegan Inc
T2 sequence (P01116 1-169 isoform P01116-2 G12S): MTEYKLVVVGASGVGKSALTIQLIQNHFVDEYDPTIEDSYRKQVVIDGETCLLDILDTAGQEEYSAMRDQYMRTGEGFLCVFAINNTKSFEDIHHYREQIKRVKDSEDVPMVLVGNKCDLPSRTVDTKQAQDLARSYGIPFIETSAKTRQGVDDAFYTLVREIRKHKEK
Summary of the method: (§1)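 Displacement measured on KRas residues 1-169 (biotinylated, terbium-streptavidin labelled); 1 h, RT; 1% DMSO final; HEPES pH 7.5 / MgCl2 / Tween-20 / DTT. IC50: 4-parameter fit.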

KRas G12C = target: T3, KRas G12C (Homo sapiens, UniProt P01116, G12C); assay: as above; conditions: 60-minute incubation at room temperature, 1% DMSO, pH 7.5
T3 construct: Biotinylated KRas (corresponding to amino acids 1-169, produced at Accelegan Inc.); biotin (biotinylated); purchased Accelegan Inc
T3 sequence (P01116 1-169 isoform P01116-2 G12C): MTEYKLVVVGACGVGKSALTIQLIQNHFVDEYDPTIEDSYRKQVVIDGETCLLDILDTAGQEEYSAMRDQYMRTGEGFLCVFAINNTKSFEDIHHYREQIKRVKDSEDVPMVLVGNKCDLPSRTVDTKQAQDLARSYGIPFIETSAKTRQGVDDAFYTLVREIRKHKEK
Summary of the method: as §1

KRas WT = target: T4, KRas WT (Homo sapiens, UniProt P01116); assay: as above; conditions: 60-minute incubation at room temperature, 1% DMSO, pH 7.5
T4 construct: Biotinylated KRas (corresponding to amino acids 1-169, produced at Accelegan Inc.); biotin (biotinylated); purchased Accelegan Inc
T4 sequence (P01116 1-169 isoform P01116-2): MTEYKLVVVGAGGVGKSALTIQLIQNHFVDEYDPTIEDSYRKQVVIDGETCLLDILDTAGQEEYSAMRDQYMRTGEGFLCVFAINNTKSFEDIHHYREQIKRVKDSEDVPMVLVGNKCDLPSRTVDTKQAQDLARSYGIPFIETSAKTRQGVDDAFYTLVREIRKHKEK
Summary of the method: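 Biotinylated KRas (residues 1-169) was incubated with tracer, terbium-streptavidin and compound at 1% DMSO final in 50 mM HEPES pH 7.5 containing 5 mM MgCl2, 0.005% Tween-20 and 1 mM DTT. The plate was read after 60 min at room temperature, and percent-of-control data were fit to a 4-parameter IC50 equation.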

[2] = target: T5, KRas-mediated phosphorylation of ERK in MKN1 cells (Homo sapiens, UniProt P01116); assay: Inhibition of KRas-mediated phosphorylation of ERK (HTRF), MKN1 cells; format: cell-based; conditions: MKN1 cells (KRas WT); HTRF pERK; 3 h incubation
T5 construct: pERK HTRF read-out
T5 sequence (P01116 1-188 isoform P01116-2): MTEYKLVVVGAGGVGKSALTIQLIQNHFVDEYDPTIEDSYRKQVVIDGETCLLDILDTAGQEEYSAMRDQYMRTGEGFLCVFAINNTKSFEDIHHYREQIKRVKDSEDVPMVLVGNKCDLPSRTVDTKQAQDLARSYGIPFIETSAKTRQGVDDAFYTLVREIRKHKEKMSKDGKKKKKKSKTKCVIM
Protocol: Inhibition of KRas Phosphorylation of ERK (HTRF) by Exemplary Compounds of Formula (Ia) or (Ib)
Cisbio HTRF Advanced pERK Assay Catalog #64AERPEH • Cells: MKN1, PSN1 • Procedure: • 1. Day 1: Seed 6,000 cells/well −25 μl/well in 384-well white solid bottom plate; RPM1_10% FBS. Incubate overnight at 37 °C/5% CO2. • 2.

[3] = target: T6, KRas-mediated phosphorylation of ERK in A549 cells (Homo sapiens, UniProt P01116, G12S); assay: Inhibition of KRas-mediated phosphorylation of ERK (HTRF), A549 cells; format: cell-based; conditions: HTRF pERK, 3 h incubation
T6 construct: pERK HTRF read-out
T6 sequence (P01116 1-188 isoform P01116-2 G12S): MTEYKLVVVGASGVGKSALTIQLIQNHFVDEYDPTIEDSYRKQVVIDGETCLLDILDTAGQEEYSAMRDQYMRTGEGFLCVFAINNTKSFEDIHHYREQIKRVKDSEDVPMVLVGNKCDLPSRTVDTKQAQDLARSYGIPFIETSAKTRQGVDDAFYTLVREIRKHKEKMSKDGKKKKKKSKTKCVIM

T1 sequence (P01116 1-188 isoform P01116-2 G12C): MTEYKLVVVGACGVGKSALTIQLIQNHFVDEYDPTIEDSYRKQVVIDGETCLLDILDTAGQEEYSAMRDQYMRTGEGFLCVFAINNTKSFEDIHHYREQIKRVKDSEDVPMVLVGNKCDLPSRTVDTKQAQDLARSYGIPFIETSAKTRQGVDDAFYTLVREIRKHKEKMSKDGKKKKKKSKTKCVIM

IC50 [1]: 9700 nM | IC50 (KRas G12S): 197 nM | IC50 (KRas G12C): 307 nM | IC50 (KRas WT): 432 nM | IC50 [2]: 3380 nM | IC50 [3]: 431 nM
Structure (SMILES): CCc1c(F)ccc2cc(O)cc(-c3ncc4c(N5CCC(C(=O)n6cc(C(C)C)cn6)CC5)nc(OC[C@@]56CCCN5C[C@H](F)C6)nc4c3F)c12 [Example 80, (1-(7-(8-ethyl-7-fluoro-3-hydroxynaphthalen-1-yl)-8-fluoro-2-(((2R,7aS)-2-fluorotetrahydro-1H-pyrrolizin-7a(5H)-yl)methoxy)pyrido[4,3-d]pyrimidin-4-yl)piperidin-4-yl)(4-isopropyl-1H-pyrazol-1-yl)methanone]

IC50 [1]: > 10000 nM | IC50 (KRas G12S): 491 nM | IC50 (KRas G12C): 673 nM | IC50 (KRas WT): 1050 nM | IC50 [2]: > 10000 nM | IC50 [3]: 6480 nM
Structure (SMILES): CCc1c(F)ccc2cc(O)cc(-c3ncc4c(N5C[C@@H]6C[C@@H](C(=O)n7ccc(C)n7)[C@@H]6C5)nc(OC[C@@]56CCCN5C[C@H](F)C6)nc4c3F)c12 [Example 162, ((1R,5R,6R)-3-(7-(8-ethyl-7-fluoro-3-hydroxynaphthalen-1-yl)-8-fluoro-2-(((2R,7aS)-2-fluorotetrahydro-1H-pyrrolizin-7a(5H)-yl)methoxy)pyrido[4,3-d]pyrimidin-4-yl)-3-azabicyclo[3.2.0]heptan-6-yl)(3-methyl-1H-pyrazol-1-yl)methanone]

IC50 [1]: 159 nM | IC50 (KRas G12S): 15 nM | IC50 (KRas G12C): 14 nM | IC50 (KRas WT): 23 nM | IC50 [2]: 159 nM | IC50 [3]: 67 nM
Structure (SMILES): CCc1c(F)ccc2cc(O)cc(-c3ncc4c(NCCCC(=O)N(C)C(C)=O)nc(OC[C@@]56CCCN5C[C@H](F)C6)nc4c3F)c12 [Example 261, N-acetyl-4-((7-(8-ethyl-7-fluoro-3-hydroxynaphthalen-1-yl)-8-fluoro-2-(((2R,7aS)-2-fluorotetrahydro-1H-pyrrolizin-7a(5H)-yl)methoxy)pyrido[4,3-d]pyrimidin-4-yl)amino)-N-methylbutanamide]

IC50 [1]: 9 nM | IC50 (KRas G12S): 8 nM | IC50 (KRas G12C): 3 nM | IC50 (KRas WT): 13 nM | IC50 [2]: 252 nM | IC50 [3]: 448 nM
Structure (SMILES): CN(CCNC(=O)n1cncn1)c1nc(OC[C@@]23CCCN2C[C@H](F)C3)nc2c(F)c(-c3ccc(F)c4sc(N)c(C#N)c34)c(Cl)cc12 [Example 228, N-(2-((7-(2-amino-3-cyano-7-fluorobenzo[b]thiophen-4-yl)-6-chloro-8-fluoro-2-(((2R,7aS)-2-fluorotetrahydro-1H-pyrrolizin-7a(5H)-yl)methoxy)quinazolin-4-yl)(methyl)amino)ethyl)-1H-1,2,4-triazole-1-carboxamide]

IC50 [1]: 662 nM | IC50 (KRas G12S): 89 nM | IC50 (KRas G12C): 65 nM | IC50 (KRas WT): 51 nM | IC50 [2]: 287 nM | IC50 [3]: 326 nM
Structure (SMILES): CCc1c(F)ccc2cc(O)cc(-c3ncc4c(N5CCC(C(=O)N(C)C(C)=O)C5)nc(OC[C@@]56CCCN5C[C@H](F)C6)nc4c3F)c12 (stereo partly drawn) [Example 274, N-acetyl-1-(7-(8-ethyl-7-fluoro-3-hydroxynaphthalen-1-yl)-8-fluoro-2-(((2R,7aS)-2-fluorotetrahydro-1H-pyrrolizin-7a(5H)-yl)methoxy)pyrido[4,3-d]pyrimidin-4-yl)-N-methylpyrrolidine-3-carboxamide]

IC50 [1]: 296 nM | IC50 (KRas G12S): 24 nM | IC50 (KRas G12C): 21 nM | IC50 (KRas WT): 12 nM | IC50 [2]: 61 nM | IC50 [3]: 677 nM
Structure (SMILES): N#Cc1c(N)sc2c(F)ccc(-c3c(Cl)cc4c(N5CCC(C(=O)N6C7CCC6COC7)CC5)nc(OC[C@@]56CCCN5C[C@H](F)C6)nc4c3F)c12 [Example 247, 4-(4-(4-(3-oxa-8-azabicyclo[3.2.1]octane-8-carbonyl)piperidin-1-yl)-6-chloro-8-fluoro-2-(((2R,7aS)-2-fluorotetrahydro-1H-pyrrolizin-7a(5H)-yl)methoxy)quinazolin-7-yl)-2-amino-7-fluorobenzo[b]thiophene-3-carbonitrile]

IC50 [1]: 15 nM | IC50 (KRas G12S): 3 nM | IC50 (KRas G12C): 3 nM | IC50 (KRas WT): 30 nM | IC50 [2]: 318 nM | IC50 [3]: 16 nM
Structure (SMILES): N#Cc1c(N)sc2c(F)ccc(-c3c(Cl)cc4c(N5CCC(C(=O)Oc6cccnc6)CC5)nc(OC[C@@]56CCCN5C[C@H](F)C6)nc4c3F)c12 [Example 296, pyridin-3-yl 1-(7-(2-amino-3-cyano-7-fluorobenzo[b]thiophen-4-yl)-6-chloro-8-fluoro-2-(((2R,7aS)-2-fluorotetrahydro-1H-pyrrolizin-7a(5H)-yl)methoxy)quinazolin-4-yl)piperidine-4-carboxylate]

IC50 [1]: 494 nM | IC50 (KRas G12S): 40 nM | IC50 (KRas G12C): 30 nM | IC50 (KRas WT): 58 nM | IC50 [2]: 340 nM | IC50 [3]: 745 nM
Structure (SMILES): CCc1c(F)ccc2cc(O)cc(-c3ncc4c(N(C)CCC(=O)N(C)C(C)=O)nc(OC[C@@]56CCCN5C[C@H](F)C6)nc4c3F)c12 [Example 273, N-acetyl-3-((7-(8-ethyl-7-fluoro-3-hydroxynaphthalen-1-yl)-8-fluoro-2-(((2R,7aS)-2-fluorotetrahydro-1H-pyrrolizin-7a(5H)-yl)methoxy)pyrido[4,3-d]pyrimidin-4-yl)(methyl)amino)-N-methylpropanamide]

Second part, the molecule before the results:

Structure (SMILES): N#Cc1c(N)sc2c(F)ccc(-c3c(Cl)cc4c(N5CCN(C(=O)n6ccnn6)CC5)nc(OC[C@@]56CCCN5C[C@H](F)C6)nc4c3F)c12 [Example 226, 4-(4-(4-(1H-1,2,3-triazole-1-carbonyl)piperazin-1-yl)-6-chloro-8-fluoro-2-(((2R,7aS)-2-fluorotetrahydro-1H-pyrrolizin-7a(5H)-yl)methoxy)quinazolin-7-yl)-2-amino-7-fluorobenzo[b]thiophene-3-carbonitrile]
IC50 [1]: 1 nM | IC50 (KRas G12S): 8 nM | IC50 (KRas G12C): < 2 nM | IC50 (KRas WT): 6 nM | IC50 [2]: 4 nM | IC50 [3]: 69 nM

Structure (SMILES): C#Cc1c(F)ccc2cc(O)cc(-c3ncc4c(N5CCC(C(=O)n6ccc(C)n6)CC5)nc(OC[C@@]56CCCN5C[C@H](F)C6)nc4c3F)c12 [Example 67, (1-(7-(8-ethynyl-7-fluoro-3-hydroxynaphthalen-1-yl)-8-fluoro-2-(((2R,7aS)-2-fluorotetrahydro-1H-pyrrolizin-7a(5H)-yl)methoxy)pyrido[4,3-d]pyrimidin-4-yl)piperidin-4-yl)(3-methyl-1H-pyrazol-1-yl)methanone]
IC50 [1]: 3080 nM | IC50 (KRas G12S): 17 nM | IC50 (KRas G12C): 51 nM | IC50 (KRas WT): 15 nM | IC50 [2]: 3290 nM | IC50 [3]: 113 nM

Structure (SMILES): COCc1ccn(C(=O)C2CCCN(c3nc(OC[C@@]45CCCN4C[C@H](F)C5)nc4c(F)c(-c5ccc(F)c6sc(N)c(C#N)c56)c(Cl)cc34)CC2)n1 (stereo partly drawn) [Example 190, 2-amino-4-(6-chloro-8-fluoro-2-(((2R,7aS)-2-fluorotetrahydro-1H-pyrrolizin-7a(5H)-yl)methoxy)-4-(4-(3-(methoxymethyl)-1H-pyrazole-1-carbonyl)azepan-1-yl)quinazolin-7-yl)-7-fluorobenzo[b]thiophene-3-carbonitrile]
IC50 [1]: 7 nM | IC50 (KRas G12S): 4 nM | IC50 (KRas G12C): 5 nM | IC50 (KRas WT): 13 nM | IC50 [2]: 205 nM | IC50 [3]: 7 nM

Structure (SMILES): CCc1c(F)ccc2cc(O)cc(-c3ncc4c(N5CCN(C(=O)n6ccc(C)n6)C(CF)C5)nc(OC[C@@]56CCCN5C[C@H](F)C6)nc4c3F)c12 (stereo partly drawn) [Example 123, (4-(7-(8-ethyl-7-fluoro-3-hydroxynaphthalen-1-yl)-8-fluoro-2-(((2R,7aS)-2-fluorotetrahydro-1H-pyrrolizin-7a(5H)-yl)methoxy)pyrido[4,3-d]pyrimidin-4-yl)-2-(fluoromethyl)piperazin-1-yl)(3-methyl-1H-pyrazol-1-yl)methanone]
IC50 [1]: 264 nM | IC50 (KRas G12S): 68 nM | IC50 (KRas G12C): 42 nM | IC50 (KRas WT): 30 nM | IC50 [2]: 219 nM | IC50 [3]: 2740 nM

Structure (SMILES): CCc1c(F)ccc2cc(O)cc(N3CCc4c(nc(OC[C@@]56CCCN5C[C@H](F)C6)nc4N4CCCC(C(=O)n5ccc(C)n5)CC4)C3)c12 (stereo partly drawn) [Example 145, (1-(7-(8-ethyl-7-fluoro-3-hydroxynaphthalen-1-yl)-2-(((2R,7aS)-2-fluorotetrahydro-1H-pyrrolizin-7a(5H)-yl)methoxy)-5,6,7,8-tetrahydropyrido[3,4-d]pyrimidin-4-yl)azepan-4-yl)(3-methyl-1H-pyrazol-1-yl)methanone]
IC50 [1]: 2810 nM | IC50 (KRas G12S): 27 nM | IC50 (KRas G12C): 237 nM | IC50 (KRas WT): 331 nM | IC50 [2]: 4010 nM | IC50 [3]: 137 nM

Structure (SMILES): COCC(=O)N(C)C(=O)CCCN(C)c1nc(OC[C@@]23CCCN2C[C@H](F)C3)nc2c(F)c(-c3ccc(F)c4sc(N)c(C#N)c34)c(Cl)cc12 [Example 307, 4-((7-(2-amino-3-cyano-7-fluorobenzo[b]thiophen-4-yl)-6-chloro-8-fluoro-2-(((2R,7aS)-2-fluorotetrahydro-1H-pyrrolizin-7a(5H)-yl)methoxy)quinazolin-4-yl)(methyl)amino)-N-(2-methoxyacetyl)-N-methylbutanamide]
IC50 [1]: 15 nM | IC50 (KRas G12S): 2 nM | IC50 (KRas G12C): 3 nM | IC50 (KRas WT): 8 nM | IC50 [2]: 70 nM | IC50 [3]: 5 nM
